Where a name gives a salt, the structure may show the parent alone.
Tests used:
[1] = test system: hereditary angioneurotic edema; settings: in vivo; cited from earlier work
[2] = test system: complement system; settings: cited from earlier work
[3] = test system: total hemolytic complement activity (human serum); settings: in vitro and in vivo, reduction in total hemolytic complement activity; cited from earlier work
[4] = test system: whole complement; assay: Complement Level Reduction Test: serum whole complement of dosed guinea pigs by capillary tube assay; type: in vivo; settings: guinea pig, vs simultaneous controls
Source text: An active inhibitor protects C2 from C1 and C4; (ii) Test, Code 035 (C3-C9 inhibitor) -- This test determines the ability of the late components of human complement (C3-C9) to lyse EAC 142 in the presence of appropriate dilutions of the test compound. An active inhibitor protects EAC 142 from lysis by human C3-C9; (iii) Test, Code 036 (C-Shunt inhibitor) -- In this test human erythrocytes rendered fragile are lysed in autologous serum via the shunt pathway activated by cobra venom factor in the presence of appropriate dilutions of the test compound. Inhibition of the shunt pathway results in failure of lysis; (iv) Forssman Vasculitis Test -- Here, the well known complement dependent lesion, Forssman vasculitis, is produced in guinea pigs by intradermal injection of rabbit anti-Forssman antiserum. The lesion is measured in terms of diameter, edema and hemorrhage and the extent to which a combined index of these is inhibited by prior intraperitoneal injection of the test compound at 200 mg/kg is then reported, unless otherwise stated; (v) Forssman Shock Test -- Lethal shock is produced in guinea pigs by an i.v. injection of anti-Forssman antiserum and the harmonic mean death time of treated guinea pigs is compared with that of simultaneous controls; (vi) Complement Level Reduction Test -- In this test, the above dosed guinea pigs, or others, are bled for serum and the complement level is determined in undiluted serum by the capillary tube method of U.S. Pat. No. 3,876,376 and compared to undosed control guinea pigs; and (vii) Cap 50 Test -- Here, appropriate amounts of the test compound are added to a pool of guinea pig serum in vitro, after which the undiluted serum capillary tube assay referred to above is run. The concentration of compound inhibiting 50% is reported.
With reference to Table I, guinea pigs weighing about 300 g were dosed intravenously (i.v.) or intraperitoneally (i.p.) with 200 mg/kg of the test compound dissolved in saline and adjusted to pH 7-8. […] The serum was tested for whole complement using the capillary tube assay. Percent inhibition was calculated by comparison with simultaneous controls. The results appear in Table I together with results of tests, code 026, 035, 036, Cap 50, % inhibition and Forssman shock.

[5] = test system: late components of human complement (C3-C9); assay: Test, Code 035 (C3-C9 inhibitor): lysis of EAC 142 by late components of human complement; type: biochemical; settings: well number in two-fold serial dilution assay; higher well number indicates higher activity
Source text: An active inhibitor protects C2 from C1 and C4; (ii) Test, Code 035 (C3-C9 inhibitor) -- This test determines the ability of the late components of human complement (C3-C9) to lyse EAC 142 in the presence of appropriate dilutions of the test compound. An active inhibitor protects EAC 142 from lysis by human C3-C9; (iii) Test, Code 036 (C-Shunt inhibitor) -- In this test human erythrocytes rendered fragile are lysed in autologous serum via the shunt pathway activated by cobra venom factor in the presence of appropriate dilutions of the test compound. Inhibition of the shunt pathway results in failure of lysis; (iv) Forssman Vasculitis Test -- Here, the well known complement dependent lesion, Forssman vasculitis, is produced in guinea pigs by intradermal injection of rabbit anti-Forssman antiserum. […]

NC[C@H]1CC[C@H](C(=O)O)CC1 [tranexamic acid]
use in treatment of hereditary angioneurotic edema [1]: used with success

heparin
anticomplementary effect / complement inhibition [2]: anticomplementary effect

NCCCCCC(=O)O [epsilon-aminocaproic acid]
use in treatment of hereditary angioneurotic edema [1]: used with success

Nc1ccc2cc(S(=O)(=O)O)cc(O)c2c1N=Nc1ccc(NC(=O)Nc2ccc(N=Nc3c(N)ccc4cc(S(=O)(=O)O)cc(O)c34)c(S(=O)(=O)O)c2)cc1S(=O)(=O)O [chlorazol fast pink, 3,3'-ureylenebis-[6-(2-amino-8-hydroxy-6-sulfo-1-naphthylazo)]benzenesulfonic acid, tetrasodium salt]
anticomplementary effect / complement inhibition [2]: anticomplementary effect

pentosan-poly-sulfoester
anticomplementary activity on human serum [3]: anticomplementary activity on human serum both in vitro and in vivo

Cc1ccc(C(=O)Nc2ccc(S(=O)(=O)O)c3cc(S(=O)(=O)O)cc(S(=O)(=O)O)c23)cc1NC(=O)c1cccc(NC(=O)Nc2cccc(C(=O)Nc3cc(C(=O)Nc4ccc(S(=O)(=O)O)c5cc(S(=O)(=O)O)cc(S(=O)(=O)O)c45)ccc3C)c2)c1 [Suramin]
anticomplementary effect / complement inhibition [2]: competitive inhibitor of the complement system | use in treatment of hereditary angioneurotic edema [1]: used with success

O=S(=O)(O)c1cc(NC(=S)Nc2cc(NC(=S)Nc3cc(S(=O)(=O)O)cc4cc(S(=O)(=O)O)cc(S(=O)(=O)O)c34)cc(NC(=S)Nc3cc(S(=O)(=O)O)cc4cc(S(=O)(=O)O)cc(S(=O)(=O)O)c34)c2)c2c(S(=O)(=O)O)cc(S(=O)(=O)O)cc2c1 [8,8',8"-[s-Phenenyltris(2-thioureylene)]tri-1,3,6-naphthalenetrisulfonic acid nonasodium salt]
% change in serum whole complement level ([4]; 200 mg/kg i.p., 30 mins.): -81% | % change in serum whole complement level ([4]; 200 mg/kg i.p., 60 mins.): -84% | % change in serum whole complement level ([4]; 200 mg/kg i.p., 120 mins.): -91% | % change in serum whole complement level ([4]; 200 mg/kg i.v., 2 mins.): -98% | % change in serum whole complement level ([4]; 200 mg/kg i.v., 30 mins.): -92% | % change in serum whole complement level ([4]; 200 mg/kg i.v., 120 mins.): -86% | C-Late 035 Wells [5]: +1 Wells

Reference: patent US4107201A, “S-Phenenyltris(thioureylene)trinaphthalenetrisulfonic acid salts” (American Cyanamid Company, priority 1977, dated 1978)
